{"source": "patent US11661398B2", "about": "“Cellular transport system for transferring a sulfonic acid construct carrying a cargo into the cytoplasm of a cell” (Scientist of Fortune, S.A., priority 2017, dated 2023)", "key": {"PnGGT* P505T": {"tested_on": "PnGGT* P505T", "test": "Sulfobutanoyl-p-nitroanilide hydrolysis kinetics", "format": "biochemical, Pseudomonas nitroreducens", "conditions": "50 mM Tris/HCl (pH 7.0)", "experimental": "FIG. 31. Sulfobutanoyl-p-nitroanilide hydrolysis kinetics of PnGGT* P505T. The kinetic parameters of PnGGT* P505T were determined in 50 mM Tris/HCl (pH 7.0) with the substrate sulfobutanoyl-p-nitroanilide added to the following concentrations: 50, 100, 250, 500, 750, 1000, 1500 and 2000 μM. […] Fitting of the kinetic data was performed with SigmaPlot v.12.2. Dots represent the average of three independent measurements with standard deviations shown as error bars.\n(§1) For the experiments relating to the sulfonate based synthetic transport system, purification of PnGGT ΔN24 and PnGGT ΔN24 D405N containing an N-terminal 6×His-tag was performed according to previous reports (Van Dyke et al., 1992) using Ni-NTA Superflow (Qiagen, Hilden, Germany). For kinetic studies, PnGGT variants were purified with the aid of the 6×His-tag located at the N-terminal end of the large subunit following the same procedure. To exchange the buffer, purified proteins were dialyzed against 50 mM Tris/HCl (pH 7.0)."}, "EcGGT ΔN24 D433N": {"biological_target": "T1, EcGGT ΔN24 D433N (Escherichia coli, UniProt P18956, D433N)", "T1 construct": "made in house; host or cells: E. coli (pACT3 plasmid); assayed in whole cell lysate", "test": "Colorimetric GGT assay in whole cell lysates", "format": "biochemical, E. coli", "conditions": "whole cell lysate, 4 mM substrate, 50 mM Tris-HCl (pH 9.0), 410 nm", "description": "To test for the desired activity a colorimetric enzyme assay was chosen and the substrate sulfobutanoyl-p-nitroanilide was synthesized for this purpose. Hydrolysis of this colorless substrate by a GGT variant into sulfobutanoic acid and the yellow dye 4-nitroaniline can be quantified photometrically at 410 nm. For that, cytoplasmic GGT variants containing an N-terminal 6×His-tag were first expressed from E. coli (EcGGT ΔN24) and Pseudomonas nitroreducens (PnGGT ΔN24), as well as EcGGT ΔN24 D433N and the corresponding mutant variant PnGGT ΔN24 D405N. Position D405 of PnGGT was identified to fulfill the same function as position D433 of EcGGT by sequence alignment and homology modeling between EcGGT and PnGGT. Then the ability of whole cell lysates containing the respective enzymes was tested to hydrolyze L-glutamic acid γ-(3-carboxy-4-nitroanilide) or sulfobutanoyl-p-nitroanilide."}, "PnGGT ΔN24 D405N": {"biological_target": "T2, PnGGT ΔN24 D405N (Pseudomonas nitroreducens, UniProt E0D5C2, D405N)", "T2 sequence (E0D5C2 with tags, fused parts or gaps D405N)": "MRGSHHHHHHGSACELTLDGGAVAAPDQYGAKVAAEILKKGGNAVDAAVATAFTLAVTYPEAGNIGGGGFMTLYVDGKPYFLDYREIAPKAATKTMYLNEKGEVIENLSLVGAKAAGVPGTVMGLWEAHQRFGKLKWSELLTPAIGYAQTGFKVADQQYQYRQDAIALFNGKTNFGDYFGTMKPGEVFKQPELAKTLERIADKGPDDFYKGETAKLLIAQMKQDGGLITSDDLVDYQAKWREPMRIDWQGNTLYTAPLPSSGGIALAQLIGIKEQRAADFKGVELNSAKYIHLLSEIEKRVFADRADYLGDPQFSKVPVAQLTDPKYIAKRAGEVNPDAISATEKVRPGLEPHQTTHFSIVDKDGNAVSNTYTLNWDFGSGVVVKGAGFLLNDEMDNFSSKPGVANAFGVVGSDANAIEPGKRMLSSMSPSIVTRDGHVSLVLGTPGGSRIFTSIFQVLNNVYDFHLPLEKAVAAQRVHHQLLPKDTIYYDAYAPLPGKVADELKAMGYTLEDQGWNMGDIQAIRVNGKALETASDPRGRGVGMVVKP", "test": "Colorimetric GGT assay in whole cell lysates / cell free extracts", "format": "biochemical", "conditions": "whole cell lysate, 4 mM substrate, 50 mM Tris-HCl (pH 9.0), 410 nm", "description": "FIG. 22: Identification of GGT* activity and refactoring of the ssuABC operon. […] The release of 4-nitroaniline was quantified by measuring the absorption at 410 nm. (b) Plasmid map of the three-dimensional RBS-library for refactoring the ssuABC operon using 144 RBS variants per gene. RBS library sequences are underlined. Arrows point towards the final RBS sequences observed in plasmid pSsuABC. […] (e) Growth of strain TK088[pSsuABC]transformed with the empty vector pACT3 (black circles) or plasmid pPnGGT* (white circles) in liquid MS minimal medium supplemented with 0.5% glucose, 1 mM MgSO4, 0.4 mM L-leucine, 0.5 mM IPTG, 100 ng ml^−1 aTc and 0.5 mM sulfobutanoyl-L-histidine. Bars and dots from panels (a), (d) and (e) represent the average of three independent measurements with standard deviations shown as error bars.\nTo test for the desired activity a colorimetric enzyme assay was chosen and the substrate sulfobutanoyl-p-nitroanilide was synthesized for this purpose. Hydrolysis of this colorless substrate by a GGT variant into sulfobutanoic acid and the yellow dye 4-nitroaniline can be quantified photometrically at 410 nm. For that, cytoplasmic GGT variants containing an N-terminal 6×His-tag were first expressed from E. coli (EcGGT ΔN24) and Pseudomonas nitroreducens (PnGGT ΔN24), as well as EcGGT ΔN24 D433N and the corresponding mutant variant PnGGT ΔN24 D405N. […]"}, "TK082": {"tested_on": "TK082", "test": "In vivo hydrolysis of sulfobutanoyl-p-nitroanilide and sulfobutanoyl-AMC", "format": "cell-based, E. coli", "conditions": "0.5 mM compound, different plasmid combinations", "experimental": "Strain TK082 was transformed with plasmids as indicated in the text and grown at 37° C. in MS minimal medium supplemented with 0.5% glucose, 1 mM MgSO4 and 0.4 mM L-leucine to an OD600 of 0.5. At that stage, the synthesis of PnGGT* and/or SsuABC was induced for 2 hours by adding 0.5 mM IPTG and 100 ng mL^−1 aTc. Following this synthesis period, cells were washed in the same medium to remove proteins that had been released into the medium by cell lysis. After an additional centrifugation step, cells were resuspended in MS minimal medium supplemented with 0.5% glucose, 1 mM MgSO4, 0.4 mM L-leucine, 0.5 mM IPTG, 100 ng mL^−1 aTc and 0.5 mM sulfobutanoyl-p-nitroanilide or sulfobutanoyl-AMC (see below for description of synthesis) and incubated in a Tecan Infinite 200 Pro plate reader at 37° C. To monitor cell density and the release of 4-nitroaniline, absorbance was constantly measured at 600 nm and 410 nm. The release of AMC was monitored by measuring the fluorescence at λex=350 nm and λem=450 nm. To determine the influence of competition for the sulfonate transporter SsuABC, different concentrations of pentanesulfonate (Sigma Aldrich) were added to the medium."}, "PnGGT ΔN24": {"biological_target": "PnGGT ΔN24 (Pseudomonas nitroreducens, UniProt E0D5C2)", "test": "Kinetic measurements with purified PnGGT ΔN24", "format": "biochemical", "experimental": "as §1\nTo determine the kinetic parameters of PnGGT ΔN24 and PnGGT ΔN24 D405N the purified enzymes were preincubated in 50 mM Tris-HCl (pH 9.0). To start the reaction, varying concentrations of the substrates L-glutamic acid γ-(3-carboxy-4-nitroanilide) or sulfobutanoyl-p-nitroanilide were added to the mixtures. The results were evaluated using GraphPad Prism (GraphPad Software, La Jolla, Calif., USA)."}}, "note": "Counter-ions that a name gives are not always drawn."}
{"compound": "O=C(CCCS(=O)(=O)O)Nc1ccc([N+](=O)[O-])cc1", "note": "[sodium salt]", "values": [{"measurement": "improvement of catalytic efficiency (kcat/KM) over PnGGT*", "setting": "PnGGT* P505T", "value": 39, "unit": "%"}, {"measurement": "improvement of kcat over PnGGT*", "setting": "PnGGT* P505T", "value": 8, "unit": "%"}, {"measurement": "lower K (KM) over PnGGT*", "setting": "PnGGT* P505T; 50-2000 μM substrate", "value": 27, "unit": "%"}, {"measurement": "hydrolysis of substrate", "setting": "EcGGT ΔN24 D433N", "value": "acquired the ability to hydrolyze"}, {"measurement": "hydrolysis of substrate", "setting": "PnGGT ΔN24 D405N", "value": "significantly higher activity than EcGGT ΔN24 D433N"}, {"measurement": "in vivo release of 4-nitroaniline from the compound", "setting": "TK082", "value": "only released from the SBA moiety when SsuABC and PnGGT* were simultaneously synthesized"}, {"measurement": "hydrolysis of substrate by purified enzyme", "setting": "PnGGT ΔN24", "value": "no detectable activity"}]}
